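In this assay, cells in 96-well plates receive the compound at five concentrations for 48 hours. Endpoints are linearly interpolated between the surrounding concentrations. The concentration for full growth arrest is given as TGI.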
Legend:
Assay in all cases: NCI tumour cell line growth inhibition, 48 h
RPMI-8226 leukemia = test system: RPMI-8226 leukemia
SF-539 CNS = test system: SF-539 CNS
SR leukemia = test system: SR leukemia
HCT-15 colon = test system: HCT-15 colon
SF-268 CNS = test system: SF-268 CNS
TK-10 renal = test system: TK-10 renal
NCI/ADR-RES ovarian = test system: NCI/ADR-RES ovarian
DU-145 prostate = test system: DU-145 prostate
HS 578T breast = test system: HS 578T breast
SK-MEL-5 melanoma = test system: SK-MEL-5 melanoma

Row | SMILES | TGI (RPMI-8226 leukemia) [µM] | TGI (SF-539 CNS) [µM] | TGI (SR leukemia) [µM] | TGI (HCT-15 colon) [µM] | TGI (SF-268 CNS) [µM] | TGI (TK-10 renal) [µM] | TGI (NCI/ADR-RES ovarian) [µM] | TGI (DU-145 prostate) [µM] | TGI (HS 578T breast) [µM] | TGI (SK-MEL-5 melanoma) [µM]
1 | CN(C)CCCNc1ccnc2c([N+](=O)[O-])cccc12 | 69.4 | 44.5 | 96.4 | 43.7 | 67.4 | > 100 |  |  |  | 
2 | COc1ccc(N2C(=O)C3ON(Cc4ccc(CC(N)=O)cc4)C(c4c5ccccc5c(C)c5ccccc45)C3C2=O)cc1 (centres undefined) |  |  | 36.8 | 74.9 | > 100 | 47.8 | > 100 | 78 | > 100 | 
3 | COc1cc(/C=C/c2ccc(OC)c(OC)c2)oc(=O)c1 | > 250 | > 250 |  | > 250 | > 250 |  | > 250 |  |  | > 250
4 | COc1ccc(C2CC(c3sc(Nc4ccc(C)cc4)nc3C)=NN2)cc1 (centres undefined) | 41.4 | 29 |  | 39.1 | 37.4 |  | 32.4 |  |  | 30.1
5 | CCOC(CBr)OC1C(=O)OCC1(C)C (centres undefined) | > 100 |  | > 100 | > 100 | > 100 | > 100 | > 100 | > 100 | > 100 | > 100
6 | CC(O)C(CO)NC(=O)C1CSSCC(NC(=O)C(N)Cc2ccccc2)C(=O)NC(Cc2ccccc2)C(=O)NC(Cc2c[nH]c3ccccc23)C(=O)NC(CCCCN)C(=O)NC(C(C)O)C(=O)N1 (centres undefined) | > 100 | > 100 | > 100 | > 100 | > 100 | > 100 | > 100 | > 100 |  | > 100
7 | CCN(CC)CCC(=O)/C=C/c1ccc(Cl)c(Cl)c1 | 0.603 |  | 9.43 | > 10 | > 10 | 9.98 | 4.66 | > 10 |  | 
8 | CC(=O)OCC1OC(n2c(C)c(C)cc(C#N)c2=S)C(OC(C)=O)C(OC(C)=O)C1OC(C)=O (centres undefined) | > 100 | > 100 | > 100 | > 100 | > 100 | > 100 |  | > 100 | > 100 | > 100
9 | CCCCn1c(=O)[nH]c2c(N)ncnc21 |  | > 100 |  | > 100 | > 100 | > 100 | > 100 | > 100 | > 100 | > 100
10 | O=C1/C(=C/c2cccc([N+](=O)[O-])c2)N=C(c2ccccc2)N1c1nc2ccc(Sc3ccccc3)cc2[nH]1 | > 100 | > 100 | > 100 | > 100 | > 100 | > 100 | > 100 |  | > 100 | > 100
11 | CCC1(O)C(=O)OCc2c1cc1n(c2=O)Cc2cc3cc4c(cc3nc2-1)OCO4 (centres undefined) | 7 |  | 3.79 | 19 | 0.761 | 37.3 | 0.0277 | > 100 | > 100 | 0.02
12 | COc1ccc(C2=C(OC(C)=O)c3cccn3-c3ccc(Cl)cc3S2)cc1 | 6.21 |  | 7.3 | > 10 | > 10 | > 10 |  | > 10 |  | > 10
13 | Cc1[nH]c(=O)nc(N/N=C/c2c3ccccc3c(Cl)c3ccccc23)c1C(=O)Nc1ccc(Cl)cc1 | > 100 |  | > 100 | > 100 | > 100 | > 100 |  | > 100 |  | > 100

Reference: PubChem BioAssay (NCI)
